Laboratory results from US8552064B2, “Suramin and derivatives thereof as topical microbicide and contraceptive” (Eastern Virginia Medical School, priority 2005, dated 2013).

Assays:
[1] = tested on: sperm penetration in cervical mucus; experiment: Modified One End Test (MOET), sperm penetration in bovine cervical mucus; assay type: cell-based
From the text: Bovine cervical mucus was obtained from Humagen (Charlottesville, Va.) in the form of prepackaged flat capillary tubes (Penetrak®), kept frozen and thawed right prior to the experiment. The Modified One End Test (MOET) [(described in Doncel G. F., in “Barrier Contraceptives”, Wiley-Liss, Mauck C. K. et al. eds., pp. 147-162 (1994)] was used to determine the effect of compounds, such as suramin sodium described herein, on sperm penetration in cervical mucus. Each of the test compositions containing the compound to be tested were diluted in a saline solution, i.e., at 9 grams of NaCl per liter of water. Tubes of cervical mucus were broken open. The open end was placed in a container containing the test compound in saline. The test compound was allowed to diffuse for 30 minutes through the tube. A semen sample, obtained from normal healthy donors, was then diluted with a buffer solution to 60 million motile sperm per milliliter and mixed with the test compound sample (i.e., suramin sodium). The tube containing the test compound sample was then re-inserted into the container containing the mixed solution and stored in an incubator at 37° C. in an atmosphere of 5 percent carbon dioxide in air for 60 minutes. The container and tube were then removed from the incubator and the tube was visually analyzed under a microscope for the migration of motile vanguard sperm through the tube. The results are expressed as percentage of migration as compared to control samples. In the control samples, the tubes were incubated with saline containing no compound. […]

sperm = experiment: Sperm progressive motility dose-response and time studies, CASA; assay type: cell-based, human; settings: 1-10,000 μg/mL or 5-0.07 mM

Row | Molecule | MOET % CTL ([1]; 30 ug/ml) | blocking of sperm penetration ([1]; 300 μg/mL (0.03%)) | MOET % CTL ([1]; 300 ug/ml) | sperm progressive motility and membrane integrity vs solvent control (sperm) | MOET % CTL ([1]; 6.25 mg/ml) | MOET % CTL ([1]; 12.5 mg/ml) | MOET % CTL ([1]; 25 mg/ml) | inhibition of sperm penetration in MOET ([1]; 50 mg/mL (5%)) | MOET % CTL ([1]; 50 mg/ml)
1 | CCCCCCCCCc1ccc(OCCOCCOCCOCCOCCOCCOCCOCCOCCO)cc1 [N-9, α-(4-Nonylphenyl)-ω-hydroxynona(oxyethylene)] | 48.6 ± 6.9 % CTL | completely blocked sperm penetration | 0.7 ± 0.5 % CTL | displayed its known sperm-immobilizing effects |  |  |  |  | 
2 | Dextran Sulfate |  |  |  |  | 93.7 ± 1.7 % CTL | 82.4 ± 5.2 % CTL | 86.8 ± 4.4 % CTL | more inhibition than suramin sodium | 56.6 ± 8.9 % CTL
